Results: ChEMBL document CHEMBL3580576, “Eremophilane Sesquiterpenes and Diphenyl Thioethers from the Soil Fungus Penicillium copticola PSU-RSPG138” (J Nat Prod, 2015)
≈ marks a conversion by molar mass, not a printed value. Calls of active or inactive are those of the source. No cut-off for these calls is given here.

Experiments:
[1] = tested on: MCF7; assay: Antiproliferative activity against human MCF7 cells assessed as reduction in cell growth incubated at 37 degC for 3 days by resazurin microplate assay; type: functional, cell-based
[2] = tested on: Mycobacterium tuberculosis; assay: Antimycobacterial activity against GFP expressing Mycobacterium tuberculosis H37Ra assessed as microbial growth inhibition incubated at 37 degC for 7 days by fluorescence based assay; type: functional
[3] = tested on: Plasmodium falciparum; assay: Antimalarial activity against multidrug-resistant Plasmodium falciparum K1 assessed as reduction in parasite growth incubated for 24 hrs by [3H]hypoxanthine incorporation based microculture radioisotope technique based method; type: functional, organism-based
[4] = tested on: Vero; assay: Cytotoxicity against African green monkey Vero cells assessed as reduction in cell growth incubated at 37 degC for 4 days by fluorescence based assay; conditions: Chlorocebus sabaeus, 96 h
[5] = tested on: KB; assay: Antiproliferative activity against human KB cells assessed as reduction in cell growth incubated at 37 degC for 3 days by resazurin microplate assay; type: functional, cell-based
[6] = Homo sapiens, MCF7, 72 h, read-out: IC50
[7] = Plasmodium falciparum, K1, read-out: IC50
[8] = Homo sapiens, KB, 72 h, read-out: IC50

Compound | MIC ([2]; 168 h) [µg/mL] | IC50 [3, 7] [µM] | MIC [2] | IC50 ([1]; mcf7) | IC50 [4] [µM] | IC50 [5, 8] [µM] | other results
CC/C(=C(\c1ccccc1)c1ccc(OCCN(C)C)cc1)c1ccccc1 [TAMOXIFEN] | – | – | – | – | – | – | IC50 [1, 6]: 18.7 µM
CN[C@@H]1[C@H](O[C@H]2[C@H](O[C@H]3[C@H](O)[C@@H](O)[C@H](N=C(N)N)[C@@H](O)[C@@H]3N=C(N)N)O[C@@H](C)[C@]2(O)C=O)O[C@@H](CO)[C@H](O)[C@H]1O [STREPTOMYCIN] | 0.625 (≈ 1.07 µM) | – | – | – | – | – | –
C[C@H]1[C@@H](O)O[C@@H]2O[C@@]3(C)CC[C@H]4[C@H](C)CC[C@@H]1[C@@]24OO3 [ARTENIMOL] | – | 0.00126 | – | – | – | – | –
C=C(C)[C@@H]1C[C@@]2(C)C(=CC1=O)CC[C@@H](O)[C@@H]2C | – | 39.3 | inactive | Not Active | 44.5 | 186 | –
C=C(CO)[C@@]12O[C@@H]1[C@@]1(C)C(=CC2=O)CC[C@@H](O)[C@@H]1C | – | 5.41 | inactive | Not Active | 6.05 | 31.8 | –
C=C(C)C1=C[C@@]2(C)C(=CC1=O)CC[C@@H](O)[C@@H]2C | – | 15.7 | inactive | Not Active | 34.6 | – | IC50 ([5]; kb): Not Active
CC1COc2c(N3CCN(C)CC3)c(F)cc3c(=O)c(C(=O)O)cn1c23 (stereo unspecified) [OFLOXACIN] | 0.391 (≈ 1.08 µM) | – | – | – | – | – | –
C=C(CO)[C@@H]1C[C@@]2(C)C(=CC1=O)CC[C@@H](O)[C@@H]2C | – | – | inactive | Not Active | 56.2 | – | IC50 ([5]; kb): Not Active; IC50 [3]: Not Active
NNC(=O)c1ccncc1 [ISONIAZID] | 0.094 (≈ 0.685 µM) | – | – | – | – | – | –
CO[C@H]1/C=C/O[C@@]2(C)Oc3c(C)c(O)c4c(O)c(c(/C=N/N5CCN(C)CC5)c(O)c4c3C2=O)NC(=O)/C(C)=C\C=C\[C@H](C)[C@H](O)[C@@H](C)[C@@H](O)[C@@H](C)[C@H](OC(C)=O)[C@@H]1C [RIFAMPIN] | 0.025 (≈ 0.0304 µM) | – | – | – | – | – | –
C=C(C)[C@@]12O[C@@H]1[C@@]1(C)C(=CC2=O)CC[C@@H](O)[C@@H]1C | – | 1.53 | inactive | Not Active | 4.23 | 17.8 | –
CC[C@@H](CO)NCCN[C@@H](CC)CO [ETHAMBUTOL] | 0.983 (≈ 4.81 µM) | – | – | – | – | – | –
C=C(C)[C@@]12O[C@@H]1[C@@]1(C)C(=CC2=O)CC[C@@H](OC(C)=O)[C@@H]1C | – | 4.55 | inactive | Not Active | 7.51 | 35.7 | –
COc1cccc2c1C(=O)c1c(O)c3c(c(O)c1C2=O)C[C@@](O)(C(=O)CO)C[C@@H]3O[C@H]1C[C@H](N)[C@H](O)[C@H](C)O1 [DOXORUBICIN] | – | – | – | – | – | 0.91 | IC50 [1, 6]: 11.5 µM
C=C(C)[C@@]12O[C@@H]1[C@@]1(C)C(=C[C@@H]2O)CC[C@@H](O)[C@@H]1C | – | – | inactive | Not Active | 24.1 | – | IC50 ([5]; kb): Not Active; IC50 [3]: Not Active
Cc1c2ccncc2c(C)c2c1[nH]c1ccccc12 [ELLIPTECINE] | – | – | – | – | 3.8 | 1.98 | –
C=C(C)[C@@]12O[C@@H]1[C@@]1(C)C(=CC2=O)CC[C@@H](OC(=O)Cc2ccc(O)c(Cl)c2)[C@@H]1C | 50 (≈ 120 µM) | 3.45 | – | – | 21.1 | 57 | IC50 [1, 6]: 39.6 µM
